Assay results as given in patent US8802700B2 (Vertex Pharmaceuticals Incorporated, priority 2010, dated 2014).

Biological target: T1, ΔF508-CFTR (Homo sapiens, UniProt P13569, DEL508-508)
T1 construct: expressed in transfected cells
Test: Membrane potential optical assay (FRET voltage-sensor dyes, VIPR), identification of potentiator compounds
Assay type: cell-based
Conditions: Table 3, assay not given; for Emax: read-out: % Activity (% Efficacy, relative efficacy)
Excerpt: The optical membrane potential assay utilized voltage-sensitive FRET sensors described by Gonzalez and Tsien (See Gonzalez, J. E. and R. Y. Tsien (1995) “Voltage sensing by fluorescence resonance energy transfer in single cells” Biophys J 69(4): 1272-80, and Gonzalez, J. E. and R. Y. Tsien (1997) “Improved indicators of cell membrane potential that use fluorescence resonance energy transfer” Chem Biol 4(4): 269-77) in combination with instrumentation for measuring fluorescence changes such as the Voltage/Ion Probe Reader (VIPR) (See […]. Oades, et al. (1999) “Cell-based assays and instrumentation for screening ion-channel targets” Drug Discov Today 4(9): 431-439). These voltage sensitive assays are based on the change in fluorescence resonant energy transfer (FRET) between the membrane-soluble, voltage-sensitive dye, DiSBAC2(3), and a fluorescent phospholipid, CC2-DMPE, which is attached to the outer leaflet of the plasma membrane and acts as a FRET donor. Changes in membrane potential (Vm) cause the negatively charged DiSBAC2(3) to redistribute across the plasma membrane and the amount of energy transfer from CC2-DMPE changes accordingly. The changes in fluorescence emission were monitored using VIPRTM II, which is an integrated liquid handler and fluorescent detector designed to conduct cell-based screens in 96- or 384-well microtiter plates. To identify potentiators of ΔF508-CFTR, a double-addition HTS assay format was developed. During the first addition, a Cl^--free medium with or without test compound was added to each well. […] (in mM) NaCl 160, KCl 4.5, CaCl2 2, MgCl2 1, HEPES 10, pH 7.4 with NaOH. • Chloride-free bath solution: Chloride salts in Bath Solution #1 are substituted with gluconate salts. • CC2-DMPE: Prepared as a 10 mM stock solution in DMSO and stored at -20° C. • DiSBAC2(3): Prepared as a 10 mM stock in DMSO and stored at -20° C. NIH3T3 mouse fibroblasts stably expressing ΔF508-CFTR are used for optical measurements of membrane potential. […] For all optical assays, the cells were seeded at 30,000/well in 384-well matrigel-coated plates and cultured for 2 hrs at 37° C. before culturing at 27° C. for 24 hrs. for the potentiator assay.

T1 sequence (P13569 with tags, fused parts or gaps DEL508-508): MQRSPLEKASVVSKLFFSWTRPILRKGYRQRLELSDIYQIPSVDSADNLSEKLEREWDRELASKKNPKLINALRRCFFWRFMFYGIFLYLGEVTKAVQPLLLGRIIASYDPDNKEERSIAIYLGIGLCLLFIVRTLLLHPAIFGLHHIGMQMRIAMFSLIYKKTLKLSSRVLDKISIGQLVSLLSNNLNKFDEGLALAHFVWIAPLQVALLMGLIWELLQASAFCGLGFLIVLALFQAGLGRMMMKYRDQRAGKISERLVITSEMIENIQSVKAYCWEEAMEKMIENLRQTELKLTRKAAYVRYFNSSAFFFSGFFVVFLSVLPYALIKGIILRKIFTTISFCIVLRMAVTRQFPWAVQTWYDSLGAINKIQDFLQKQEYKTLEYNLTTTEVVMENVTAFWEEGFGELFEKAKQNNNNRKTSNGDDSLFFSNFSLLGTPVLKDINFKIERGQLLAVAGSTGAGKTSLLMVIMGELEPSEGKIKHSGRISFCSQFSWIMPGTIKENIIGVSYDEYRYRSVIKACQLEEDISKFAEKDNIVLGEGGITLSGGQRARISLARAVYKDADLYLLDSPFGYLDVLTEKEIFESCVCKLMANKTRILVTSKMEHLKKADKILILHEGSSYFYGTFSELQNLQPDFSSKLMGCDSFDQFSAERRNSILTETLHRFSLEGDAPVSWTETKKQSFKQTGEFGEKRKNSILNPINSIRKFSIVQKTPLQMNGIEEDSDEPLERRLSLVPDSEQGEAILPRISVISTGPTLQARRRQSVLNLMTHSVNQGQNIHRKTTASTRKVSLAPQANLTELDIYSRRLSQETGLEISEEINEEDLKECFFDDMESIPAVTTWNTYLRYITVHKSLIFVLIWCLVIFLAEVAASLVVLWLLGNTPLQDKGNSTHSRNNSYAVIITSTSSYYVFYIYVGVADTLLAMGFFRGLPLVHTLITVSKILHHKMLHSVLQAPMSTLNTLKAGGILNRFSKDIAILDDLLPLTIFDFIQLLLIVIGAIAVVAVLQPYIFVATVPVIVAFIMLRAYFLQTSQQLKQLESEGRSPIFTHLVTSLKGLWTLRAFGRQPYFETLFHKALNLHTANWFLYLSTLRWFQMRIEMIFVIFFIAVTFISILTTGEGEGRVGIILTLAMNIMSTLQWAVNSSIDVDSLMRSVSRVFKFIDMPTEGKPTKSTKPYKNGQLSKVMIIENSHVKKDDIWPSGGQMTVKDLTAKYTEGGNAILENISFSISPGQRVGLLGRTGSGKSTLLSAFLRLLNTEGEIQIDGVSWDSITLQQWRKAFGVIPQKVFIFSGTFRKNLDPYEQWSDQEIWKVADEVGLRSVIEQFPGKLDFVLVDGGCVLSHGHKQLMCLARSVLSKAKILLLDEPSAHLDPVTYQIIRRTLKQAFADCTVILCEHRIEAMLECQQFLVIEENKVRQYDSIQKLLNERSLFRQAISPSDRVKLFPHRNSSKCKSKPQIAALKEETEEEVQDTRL

Compound | Emax [%] | EC50 [µM]
O=C(Nc1ccc(-c2ccccc2CNC(=O)C(F)(F)F)cc1)c1c[nH]c2ccccc2c1=O [Compound 224, 4-oxo-N-[4-[2-[(2,2,2-trifluoroacetyl)aminomethyl]phenyl]phenyl]-1H-quinoline-3-carboxamide] | 25 to 100 | –
O=C(Nc1ccc(N2CCOCC2)cc1C(F)(F)F)c1c[nH]c2ccccc2c1=O [Compound 598, N-[4-morpholino-2-(trifluoromethyl)phenyl]-4-oxo-1H-quinoline-3-carboxamide] | > 100 | –
O=C(Nc1cc2[nH]ccc2cc1C(=O)N1CCCCC1)c1c[nH]c2ccccc2c1=O [Compound 148, 4-Oxo-N-[5-(1-piperidylcarbonyl)-1H-indol-6-yl]-1H-quinoline-3-carboxamide] | 25 to 100 | –
CCC(C)c1ccc(NC(=O)c2c[nH]c3ccccc3c2=O)cc1 (stereo not shown) [Compound 310, 4-oxo-N-(4-sec-butylphenyl)-1H-quinoline-3-carboxamide] | 25 to 100 | –
COc1nc2ccccc2c(OC)c1C(=O)Nc1cc(NC(=O)OC(C)(C)C)ccc1C(C)(C)C [Compound 39, [3-[(2,4-dimethoxy-3-quinolyl)carbonylamino]-4-tert-butyl-phenyl]aminoformic acid tert-butyl ester] | 25 to 100 | –
Cn1c(=O)oc2ccc(NC(=O)c3c[nH]c4ccccc4c3=O)cc21 [Compound 474, N-(3-methyl-2-oxo-3H-benzooxazol-5-yl)-4-oxo-1H-quinoline-3-carboxamide] | < 25 | –
O=C(Nc1cc(NS(=O)(=O)CCN2CCCCC2)cc(C(F)(F)F)c1)c1c[nH]c2ccccc2c1=O [Compound 318, 4-Oxo-N-[3-[2-(1-piperidyl)ethylsulfonylamino]-5-(trifluoromethyl)phenyl]-1H-quinoline-3-carboxamide] | 25 to 100 | –
O=C(Nc1ccccc1-c1csc2ccccc12)c1c[nH]c2ccccc2c1=O [Compound 417, N-(2-(benzo[b]thiophen-3-yl)phenyl)-1,4-dihydro-4-oxoquinoline-3-carboxamide] | 25 to 100 | –
COc1ccc(NC(=O)c2c[nH]c3ccccc3c2=O)cc1OC [Compound 122, N-(3,4-dimethoxyphenyl)-4-oxo-1H-quinoline-3-carboxamide] | < 25 | –
O=C(Nc1ccccc1-c1ccc(F)c(Cl)c1)c1c[nH]c2ccccc2c1=O [Compound 190, N-[2-(3-chloro-4-fluoro-phenyl)phenyl]-4-oxo-1H-quinoline-3-carboxamide] | 25 to 100 | –
CCCc1ccc(NC(=O)c2c[nH]c3ccccc3c2=O)cc1N [Compound 160, N-(3-amino-4-propyl-phenyl)-4-oxo-1H-quinoline-3-carboxamide] | 25 to 100 | –
CC(=O)Nc1cccc(-c2ccccc2NC(=O)c2c[nH]c3ccccc3c2=O)c1 [Compound 25, N-[2-(3-acetylaminophenyl)phenyl]-4-oxo-1H-quinoline-3-carboxamide] | 25 to 100 | 10 to 25
COCCn1ccc2cc(C(F)(F)F)c(NC(=O)c3c[nH]c4ccc(F)cc4c3=O)cc21 [Compound 566, 6-fluoro-N-[1-(2-methoxyethyl)-5-(trifluoromethyl)indol-6-yl]-4-oxo-1H-quinoline-3-carboxamide] | 25 to 100 | –
Cc1ccc(C(F)(F)F)cc1NC(=O)c1c[nH]c2ccccc2c1=O [Compound 577, N-[2-methyl-5-(trifluoromethyl)phenyl]-4-oxo-1H-quinoline-3-carboxamide] | 25 to 100 | –
O=C(Nc1cc2[nH]ccc2cc1-c1cccnc1)c1c[nH]c2ccccc2c1=O [Compound 65, 4-oxo-N-[5-(3-pyridyl)-1H-indol-6-yl]-1H-quinoline-3-carboxamide] | 25 to 100 | –
Cc1cccc2c(=O)c(C(=O)Nc3cc(O)c(C(C)(C)C)cc3C(C)(C)C)c[nH]c12 [Compound 621, N-(5-hydroxy-2,4-ditert-butyl-phenyl)-8-methyl-4-oxo-1H-quinoline-3-carboxamide] | < 25 | –
CC(C)c1ccc(NC(=O)c2c[nH]c3cccc(O)c3c2=O)cc1O [Compound 587, 5-hydroxy-N-(3-hydroxy-4-isopropyl-phenyl)-4-oxo-1H-quinoline-3-carboxamide] | 25 to 100 | –
COc1ccc(NC(=O)c2c[nH]c3ccccc3c2=O)cc1 [Compound 439, N-(4-methoxyphenyl)-4-oxo-1H-quinoline-3-carboxamide] | 25 to 100 | –

The remaining lines, values ahead:

Emax [%] | EC50 [µM] | Compound
25 to 100 | < 10 | COC(=O)c1cccc(-c2ccccc2NC(=O)c2c[nH]c3ccccc3c2=O)c1 [Compound 68, 3-[2-[(4-oxo-1H-quinolin-3-yl)carbonylamino]phenyl]benzoic acid methyl ester]
25 to 100 | – | O=C(Nc1ccccc1N1CCN(C(=O)c2ccccc2)CC1)c1c[nH]c2ccccc2c1=O [Compound 321, N-[2-(4-benzoylpiperazin-1-yl)phenyl]-4-oxo-1H-quinoline-3-carboxamide]
< 25 | – | NS(=O)(=O)c1cccc(NC(=O)c2c[nH]c3ccccc3c2=O)c1 [Compound 9, 4-oxo-N-(3-sulfamoylphenyl)-1H-quinoline-3-carboxamide]
25 to 100 | – | COC(=O)Nc1cc(NC(=O)c2c[nH]c3ccccc3c2=O)ccc1C(C)C [Compound 30, [2-isopropyl-5-[(4-oxo-1H-quinolin-3-yl)carbonylamino]phenyl]aminoformic acid methyl ester]
25 to 100 | – | Cc1ccc(-c2ccccc2NC(=O)c2c[nH]c3ccccc3c2=O)cc1C [Compound 261, N-[2-(3,4-dimethylphenyl)phenyl]-4-oxo-1H-quinoline-3-carboxamide]
25 to 100 | – | O=C(Nc1ccccc1-c1cc(Cl)ccc1Cl)c1c[nH]c2ccccc2c1=O [Compound 213, N-[2-(2,5-dichlorophenyl)phenyl]-4-oxo-1H-quinoline-3-carboxamide]
< 25 | – | O=C(Nc1ccc2c(c1)OCO2)c1c[nH]c2ccccc2c1=O [Compound 437, N-benzo[1,3]dioxol-5-yl-4-oxo-1H-quinoline-3-carboxamide]
25 to 100 | – | CC(C)(C)c1cc(C(F)(F)F)c(NC(=O)c2c[nH]c3ccccc3c2=O)cc1O [Compound 266, N-[5-hydroxy-4-tert-butyl-2-(trifluoromethyl)phenyl]-4-oxo-1H-quinoline-3-carboxamide]
< 25 | – | O=C(Nc1ccc(Cl)nc1)c1c[nH]c2ccccc2c1=O [Compound 392, N-(6-chloro-3-pyridyl)-4-oxo-1H-quinoline-3-carboxamide]
25 to 100 | – | Cc1ccccc1NC(=O)c1c[nH]c2ccccc2c1=O [Compound 459, N-(o-tolyl)-4-oxo-1H-quinoline-3-carboxamide]
< 25 | – | O=C(Nc1ccccc1-c1nc2ccccc2[nH]1)c1c[nH]c2ccccc2c1=O [Compound 227, N-[2-(3H-benzoimidazol-2-yl)phenyl]-4-oxo-1H-quinoline-3-carboxamide]
25 to 100 | – | COc1cc(NC(=O)c2c[nH]c3cccc(O)c3c2=O)cc(C(F)(F)F)c1 [Compound 502, 5-hydroxy-N-[3-methoxy-5-(trifluoromethyl)phenyl]-4-oxo-1H-quinoline-3-carboxamide]
25 to 100 | – | CC(C)(C)c1ccc(NC(=O)c2c[nH]c3cccc(O)c3c2=O)cc1O [Compound 633, 5-hydroxy-N-(3-hydroxy-4-tert-butyl-phenyl)-4-oxo-1H-quinoline-3-carboxamide]
> 100 | – | CC(C)(C)c1cc2cc[nH]c2cc1NC(=O)c1c[nH]c2ccc(F)cc2c1=O [Compound 124, 6-fluoro-4-oxo-N-(5-tert-butyl-1H-indol-6-yl)-1H-quinoline-3-carboxamide]
